Source: paper PMC3295836 (Bioorganic & medicinal chemistry letters, 2012)
“And” between values parts separate entries of the source, which are not always exact repeats. Equal entries are not always repeated.

How the values were obtained:
[1] = system: anthrax lethal toxin (LT; PA + LF); parameters: species or system Fischer 344 rats; conditions: rat, in vivo
[2] = t = 30 min
[3] = biological target: anthrax lethal factor (LF) (Bacillus anthracis, UniProt P15917); type: biochemical
[4] = in vivo; conditions: NZW, rabbit, sc, 10 mg/kg

Chain of anthrax lethal factor (LF) (P15917 34-809 limits assumed): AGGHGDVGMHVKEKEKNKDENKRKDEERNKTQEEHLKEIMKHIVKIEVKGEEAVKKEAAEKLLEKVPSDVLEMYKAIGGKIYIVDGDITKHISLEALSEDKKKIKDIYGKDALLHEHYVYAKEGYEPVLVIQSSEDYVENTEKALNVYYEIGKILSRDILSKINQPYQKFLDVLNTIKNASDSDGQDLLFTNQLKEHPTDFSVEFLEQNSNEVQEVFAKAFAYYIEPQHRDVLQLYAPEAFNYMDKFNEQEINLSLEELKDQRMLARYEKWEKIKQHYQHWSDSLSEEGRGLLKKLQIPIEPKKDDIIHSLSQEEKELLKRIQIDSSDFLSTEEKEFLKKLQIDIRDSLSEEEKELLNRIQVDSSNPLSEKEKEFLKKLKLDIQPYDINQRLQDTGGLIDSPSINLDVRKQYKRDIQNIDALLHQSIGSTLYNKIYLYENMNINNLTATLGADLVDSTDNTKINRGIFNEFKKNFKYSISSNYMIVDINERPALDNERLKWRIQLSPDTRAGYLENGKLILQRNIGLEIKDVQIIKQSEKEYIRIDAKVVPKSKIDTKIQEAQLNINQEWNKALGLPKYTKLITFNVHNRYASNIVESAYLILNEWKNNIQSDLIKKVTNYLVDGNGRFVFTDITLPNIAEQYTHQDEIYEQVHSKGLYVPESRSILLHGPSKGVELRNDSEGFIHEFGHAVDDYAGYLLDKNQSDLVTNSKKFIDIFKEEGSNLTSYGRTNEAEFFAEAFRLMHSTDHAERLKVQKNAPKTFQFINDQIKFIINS

| SMILES | surv (number of survivors per group) [1] | rMST = MST(LFI)/MST(controls) [1] | further results |
| --- | --- | --- | --- |
| CCC(NCCCC[C@@H](Cc1cc(C)c(F)c(C)c1)C(=O)NO)c1ccc(F)cc1 (stereo partly shown) [LFI 18] | protect all of the animals and 3/3 and 5/6 |  |  |
| Cc1cc(N[C@H](CCCCNCc2ccc(F)cc2)C(=O)NO)cc(C)c1F [LFI 1] | 3/5 and 3/3 | 16.8 |  |
| CCC(NCCCC[C@@H](Oc1cc(C)c(F)c(C)c1)C(=O)NO)c1ccc(F)cc1 (stereo partly shown) [LFI 19] | 1/3 |  | M = microsome stability, percent of compound remaining [2]: < 10% |
| Cc1cc(C[C@H](CCCCNCc2ccc(F)cc2)C(=O)NO)cc(C)c1F [LFI 2] | 1/3 and 3/3 | 19.3 |  |
| Cc1cc(C[C@H](CCCCN[C@H](Cc2ccccc2)c2ccc(F)cc2)C(=O)NO)cc(C)c1F [LFI 15] |  |  | LF (FRET) KinM) [3]: sub-nanomolar |
| CC[C@@H](NCCCC[C@@H](Cc1cc(C)c(F)c(C)c1)C(=O)NO)c1ccc(F)cc1 [LFI 11] |  |  | difference in potency against LF between analogs [3]: 50 fold |
| CCC(NCCCC[C@@H](C[C@@H](OC)c1ccc(F)cc1)C(=O)NO)c1ccc(F)cc1 (stereo partly shown) [LFI 20] |  |  | Cmax [4]: 561 ng/mL |
| Cc1cc(O[C@H](CCCCNCc2ccc(F)cc2)C(=O)NO)cc(C)c1F [LFI 3] | 0/3 | 16.0 |  |
| CO[C@H](C[C@H](CCCCNCc1ccc(F)cc1)C(=O)NO)c1ccc(F)cc1 [LFI 4] | one animal was lost |  |  |
